# Laboratory results published in patent US9522888B2, “Substituted bicyclic compounds” (BRISTOL-MYERS SQUIBB COMPANY, priority 2014, dated 2016).
# Target: S1P3 (membranes prepared from EDG3-Gal5-bla HEK293T cells) (Homo sapiens (Human), UniProt Q99500)
# Experiment: Receptor [35S] GTPγS binding assay (S1P3 GTPγS)
# Assay type: biochemical
# Conditions: phosphate examples; read-out: S1P3 GTPγS
# Procedure, shortened: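 Membranes (3 μg protein/well) from S1P1/CHO cells or EDG3-Gal5-bla HEK293T cells (S1P3) were incubated 45 min at room temperature with 0.2 nM final [35S]GTPγS in HEPES pH 7.5 buffer with 10 μM GDP, MgCl2 and saponin. Bound label counted after filtration; EC50 from 11-point, 3-fold dilutions.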
# Chain of S1P3 (membranes prepared from EDG3-Gal5-bla HEK293T cells) (Q99500 whole entry): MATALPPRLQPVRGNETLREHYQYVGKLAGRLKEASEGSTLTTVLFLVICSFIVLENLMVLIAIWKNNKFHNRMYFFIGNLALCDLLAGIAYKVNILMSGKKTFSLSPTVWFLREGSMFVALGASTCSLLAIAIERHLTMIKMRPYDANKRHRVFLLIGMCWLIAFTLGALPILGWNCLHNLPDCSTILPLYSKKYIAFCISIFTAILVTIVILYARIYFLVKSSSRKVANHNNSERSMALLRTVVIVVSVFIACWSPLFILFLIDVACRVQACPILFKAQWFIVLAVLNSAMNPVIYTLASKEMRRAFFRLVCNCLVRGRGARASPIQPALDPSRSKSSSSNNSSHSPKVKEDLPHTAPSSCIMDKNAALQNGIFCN
row,SMILES,EC50 [nM]
1,CCCCOC[C@@H]1COc2cc([C@@H]3CC[C@](N)(COP(=O)(O)O)C3)ccc2O1 [compound 415],> 625
2,CC(C)(C)CCOC[C@@H]1CCc2cc([C@H]3CC[C@](N)(COP(=O)(O)O)C3)ccc2C1 [compound 464],> 625
3,CC(C)CSC[C@@H]1CCc2cc([C@H]3CC[C@](N)(COP(=O)(O)O)C3)ccc2C1 [compound 504],> 625
4,C/C=C\CCC[C@H]1CCc2cc([C@H]3CC[C@](N)(COP(=O)(O)O)C3)ccc2C1 [compound 657],> 625
5,CN(C)CCCCC[C@@H]1CCc2cc([C@H]3CC[C@](N)(COP(=O)(O)O)C3)ccc2C1 [compound 561],> 625
6,COCc1cccc(C[C@@H]2CCc3cc([C@H]4CC[C@](N)(COP(=O)(O)O)C4)ccc3C2)c1 [compound 552],> 625
7,CCOc1ccc(C[C@H]2CCc3cc([C@H]4CC[C@](N)(COP(=O)(O)O)C4)ccc3C2)cc1 [compound 547],> 625
8,CC(C)CSCC[C@H]1CCc2cc([C@H]3CC[C@](N)(COP(=O)(O)O)C3)ccc2C1 [compound 539],> 625
9,CCCCCO[C@@H]1CCc2cc([C@@H]3CC[C@](N)(COP(=O)(O)O)C3)ccc2C1 [compound 433],> 625
10,COc1ccc(C[C@@H]2CCc3cc([C@H]4CC[C@](N)(COP(=O)(O)O)C4)ccc3C2)cc1OC [compound 553],> 625

# Target: S1P1 (membranes prepared from S1P1/CHO cells) (Homo sapiens (Human), UniProt P21453)
# Experiment: Receptor [35S] GTPγS binding assay (S1P1 GTPγS)
# Assay type: biochemical
# Conditions: phosphate examples; read-out: S1P1 GTPγS
# Procedure, shortened: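 Membranes from S1P1-expressing CHO cells (3 μg protein/well) incubated with compound (11-point, 3-fold dilution) and 0.2 nM final [35S]GTPγS, 45 min at room temperature. Assay buffer: 20 mM HEPES pH 7.5, 10 mM MgCl2, 150 mM NaCl, 10 μM GDP, 0.1% fatty-acid-free BSA, 10 μg/ml saponin. Filter-bound radioactivity counted by scintillation; EC50 derived.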
# Chain of S1P1 (membranes prepared from S1P1/CHO cells) (P21453 whole entry): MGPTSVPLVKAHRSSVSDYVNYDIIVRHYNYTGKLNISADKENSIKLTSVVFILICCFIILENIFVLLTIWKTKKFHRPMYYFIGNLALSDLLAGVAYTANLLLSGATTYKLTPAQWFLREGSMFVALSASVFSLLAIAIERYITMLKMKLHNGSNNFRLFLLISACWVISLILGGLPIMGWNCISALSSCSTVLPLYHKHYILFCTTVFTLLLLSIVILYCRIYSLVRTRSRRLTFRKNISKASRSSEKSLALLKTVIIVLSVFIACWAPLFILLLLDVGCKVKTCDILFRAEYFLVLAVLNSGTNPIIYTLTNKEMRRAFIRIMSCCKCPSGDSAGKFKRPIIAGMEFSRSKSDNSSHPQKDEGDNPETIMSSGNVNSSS
row,SMILES,EC50 [nM]
1,CCCCOC[C@@H]1COc2cc([C@@H]3CC[C@](N)(COP(=O)(O)O)C3)ccc2O1 [compound 415],10 to 100
2,CC(C)(C)CCOC[C@@H]1CCc2cc([C@H]3CC[C@](N)(COP(=O)(O)O)C3)ccc2C1 [compound 464],< 10
3,CC(C)CSC[C@@H]1CCc2cc([C@H]3CC[C@](N)(COP(=O)(O)O)C3)ccc2C1 [compound 504],10 to 100
4,C/C=C\CCC[C@H]1CCc2cc([C@H]3CC[C@](N)(COP(=O)(O)O)C3)ccc2C1 [compound 657],< 10
5,CN(C)CCCCC[C@@H]1CCc2cc([C@H]3CC[C@](N)(COP(=O)(O)O)C3)ccc2C1 [compound 561],100 to 1000
6,COCc1cccc(C[C@@H]2CCc3cc([C@H]4CC[C@](N)(COP(=O)(O)O)C4)ccc3C2)c1 [compound 552],10 to 100
7,CCOc1ccc(C[C@H]2CCc3cc([C@H]4CC[C@](N)(COP(=O)(O)O)C4)ccc3C2)cc1 [compound 547],10 to 100
8,CC(C)CSCC[C@H]1CCc2cc([C@H]3CC[C@](N)(COP(=O)(O)O)C3)ccc2C1 [compound 539],< 10
9,CCCCCO[C@@H]1CCc2cc([C@@H]3CC[C@](N)(COP(=O)(O)O)C3)ccc2C1 [compound 433],100 to 1000
10,COc1ccc(C[C@@H]2CCc3cc([C@H]4CC[C@](N)(COP(=O)(O)O)C4)ccc3C2)cc1OC [compound 553],100 to 1000

# Target: human S1P1 (Homo sapiens (Human), UniProt P21453)
# Experiment: S1P1 binding assay (33P-S1P radioligand competition, CHO cell membranes)
# Conditions: phosphate examples; read-out: S1P1 Binding
# Procedure, shortened: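 Radioligand is 33P-S1P, competing for membranes from human S1P1-expressing CHO cells. Membranes resuspended in 50 mM HEPES pH 7.5, 100 mM NaCl, 1 mM MgCl2, 2 mM EDTA.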
# Chain of human S1P1 (P21453 whole entry): as above
row,SMILES,IC50 [nM]
1,CCCCOC[C@@H]1COc2cc([C@@H]3CC[C@](N)(COP(=O)(O)O)C3)ccc2O1 [compound 415],10 to 100
2,CC(C)(C)CCOC[C@@H]1CCc2cc([C@H]3CC[C@](N)(COP(=O)(O)O)C3)ccc2C1 [compound 464],< 10
3,CC(C)CSC[C@@H]1CCc2cc([C@H]3CC[C@](N)(COP(=O)(O)O)C3)ccc2C1 [compound 504],< 10
4,C/C=C\CCC[C@H]1CCc2cc([C@H]3CC[C@](N)(COP(=O)(O)O)C3)ccc2C1 [compound 657],10 to 100
5,CN(C)CCCCC[C@@H]1CCc2cc([C@H]3CC[C@](N)(COP(=O)(O)O)C3)ccc2C1 [compound 561],100 to 1000
6,COCc1cccc(C[C@@H]2CCc3cc([C@H]4CC[C@](N)(COP(=O)(O)O)C4)ccc3C2)c1 [compound 552],< 10
7,CCOc1ccc(C[C@H]2CCc3cc([C@H]4CC[C@](N)(COP(=O)(O)O)C4)ccc3C2)cc1 [compound 547],< 10
8,CC(C)CSCC[C@H]1CCc2cc([C@H]3CC[C@](N)(COP(=O)(O)O)C3)ccc2C1 [compound 539],< 10
9,CCCCCO[C@@H]1CCc2cc([C@@H]3CC[C@](N)(COP(=O)(O)O)C3)ccc2C1 [compound 433],10 to 100
10,COc1ccc(C[C@@H]2CCc3cc([C@H]4CC[C@](N)(COP(=O)(O)O)C4)ccc3C2)cc1OC [compound 553],100 to 1000

# Target: hS1P1/CHO cells (Homo sapiens (Human), UniProt P21453)
# Experiment: hS1P1 ERK phosphorylation (S1P1 pERK)
# Assay type: cell-based
# Conditions: phosphate examples
# Procedure, shortened: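 CHO cells expressing human S1P1, serum-starved 2 h, exposed to compound in HBSS/20 mM HEPES for 7 min at 37° C. Lysates assayed for phospho-ERK by SureFire kit; response given as % activation relative to 10 μM S1P.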
# Chain of hS1P1/CHO cells (P21453 whole entry): as above
row,SMILES,EC50 [nM]
1,CCCCOC[C@@H]1COc2cc([C@@H]3CC[C@](N)(COP(=O)(O)O)C3)ccc2O1 [compound 415],10 to 100
2,CC(C)(C)CCOC[C@@H]1CCc2cc([C@H]3CC[C@](N)(COP(=O)(O)O)C3)ccc2C1 [compound 464],10 to 100
3,CC(C)CSC[C@@H]1CCc2cc([C@H]3CC[C@](N)(COP(=O)(O)O)C3)ccc2C1 [compound 504],< 10
4,C/C=C\CCC[C@H]1CCc2cc([C@H]3CC[C@](N)(COP(=O)(O)O)C3)ccc2C1 [compound 657],10 to 100
5,CN(C)CCCCC[C@@H]1CCc2cc([C@H]3CC[C@](N)(COP(=O)(O)O)C3)ccc2C1 [compound 561],10 to 100
6,COCc1cccc(C[C@@H]2CCc3cc([C@H]4CC[C@](N)(COP(=O)(O)O)C4)ccc3C2)c1 [compound 552],10 to 100
7,CCOc1ccc(C[C@H]2CCc3cc([C@H]4CC[C@](N)(COP(=O)(O)O)C4)ccc3C2)cc1 [compound 547],10 to 100
8,CC(C)CSCC[C@H]1CCc2cc([C@H]3CC[C@](N)(COP(=O)(O)O)C3)ccc2C1 [compound 539],< 10
9,CCCCCO[C@@H]1CCc2cc([C@@H]3CC[C@](N)(COP(=O)(O)O)C3)ccc2C1 [compound 433],< 10
10,COc1ccc(C[C@@H]2CCc3cc([C@H]4CC[C@](N)(COP(=O)(O)O)C4)ccc3C2)cc1OC [compound 553],< 10
